Measurements reported in ChEMBL document CHEMBL1201862, “PubChem BioAssay data set” (2004).
The source made the active and inactive calls.

Columns and labels:
[1] = molecular target: T1, Alkaline phosphatase, tissue-nonspecific isozyme (Homo sapiens, UniProt P05186); assay: human TNAP enzyme inhibitors, SAR follow-up, biochemical, luminescent, dose response (AID 1056)
T1 sequence (P05186 whole entry): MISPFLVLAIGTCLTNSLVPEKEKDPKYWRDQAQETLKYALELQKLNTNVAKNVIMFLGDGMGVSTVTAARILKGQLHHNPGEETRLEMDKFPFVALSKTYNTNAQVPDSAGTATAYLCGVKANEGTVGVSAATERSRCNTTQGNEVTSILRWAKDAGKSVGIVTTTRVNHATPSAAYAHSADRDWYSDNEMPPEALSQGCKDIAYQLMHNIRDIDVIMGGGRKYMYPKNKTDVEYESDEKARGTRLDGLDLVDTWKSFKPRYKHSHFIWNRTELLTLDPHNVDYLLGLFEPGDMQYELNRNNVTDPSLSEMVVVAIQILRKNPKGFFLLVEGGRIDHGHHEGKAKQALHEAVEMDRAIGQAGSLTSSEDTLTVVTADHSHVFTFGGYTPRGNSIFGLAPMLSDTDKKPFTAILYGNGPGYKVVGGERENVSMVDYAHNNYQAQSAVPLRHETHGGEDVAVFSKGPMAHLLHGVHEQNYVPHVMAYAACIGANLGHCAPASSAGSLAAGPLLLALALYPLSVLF

[2] = molecular target: Glyceraldehyde-3-phosphate dehydrogenase (Homo sapiens, UniProt P04406)
[3] = molecular target: Alkaline phosphatase, placental type (Homo sapiens, UniProt P05187); assay: PLAP enzyme inhibitors, confirmation, biochemical, luminescence (AID 1512); assay type: functional
[4] = molecular target: T2, Dual specificity protein phosphatase 6 (Rattus norvegicus, UniProt Q64346)
T2 sequence (Q64346 whole entry): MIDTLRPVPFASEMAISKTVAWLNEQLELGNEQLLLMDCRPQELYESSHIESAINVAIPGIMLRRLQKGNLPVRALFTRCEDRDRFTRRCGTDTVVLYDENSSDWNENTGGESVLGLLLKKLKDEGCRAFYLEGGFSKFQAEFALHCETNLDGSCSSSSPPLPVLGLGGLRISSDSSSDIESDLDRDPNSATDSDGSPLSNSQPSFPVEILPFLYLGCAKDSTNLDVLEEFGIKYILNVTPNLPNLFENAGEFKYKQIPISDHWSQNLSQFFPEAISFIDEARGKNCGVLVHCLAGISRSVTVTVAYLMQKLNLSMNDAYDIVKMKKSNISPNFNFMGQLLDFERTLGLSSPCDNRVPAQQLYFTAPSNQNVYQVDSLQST

[5] = molecular target: T3, Tyrosine-protein phosphatase non-receptor type 7 (Homo sapiens, UniProt P35236); assay type: functional
T3 sequence (P35236 whole entry): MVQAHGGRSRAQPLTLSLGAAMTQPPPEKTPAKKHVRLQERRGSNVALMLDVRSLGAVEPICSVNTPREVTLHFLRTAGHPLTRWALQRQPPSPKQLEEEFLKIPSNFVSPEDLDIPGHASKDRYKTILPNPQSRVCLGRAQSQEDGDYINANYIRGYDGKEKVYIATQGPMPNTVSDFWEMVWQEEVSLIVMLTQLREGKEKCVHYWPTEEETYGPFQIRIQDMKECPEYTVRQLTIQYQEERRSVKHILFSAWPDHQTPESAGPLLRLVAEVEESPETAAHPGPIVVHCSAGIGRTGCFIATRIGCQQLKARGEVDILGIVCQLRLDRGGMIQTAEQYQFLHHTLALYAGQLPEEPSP

[6] = molecular target: T2, Dual specificity protein phosphatase 6; assay type: functional
HEK293 [7] = assay: cells; assay type: functional, cell-based; conditions: Homo sapiens
HEK293 [8] = assay: cells; assay type: functional, cell-based; conditions: Homo sapiens; remark: listed apart in the source
[9] = molecular target: Nucleotide-binding oligomerization domain-containing protein 2 (Homo sapiens, UniProt Q9HC29); assay: NOD2 signaling inhibitors, cell-based, luminescence, uHTS, HEK293 (AID 1566); assay type: functional
HEK293 [10] = assay: NOD1 signaling inhibitors, primary screen, cell-based, luminescence, uHTS (AID 1578); assay type: functional; conditions: Homo sapiens
HEK293 [11] = assay: cells; assay type: functional, cell-based; conditions: Homo sapiens; remark: listed apart in the source
HEK293 [12] = assay: NOD2 signaling inhibitors in MDP-stimulated cells, cell-based, uHTS, luminescence (AID 2001); assay type: functional; conditions: Homo sapiens
Cytochrome P450 3A4 = Cytochrome P450 3A4 (Homo sapiens, UniProt P08684);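 note: CYP3A4 tested as one member of a cytochrome P450 panel screen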
[13] = molecular target: T4, Heat shock factor protein 1 (Mus musculus, UniProt P38532); assay: HSF1 potentiators in luciferase reporter cells, confirmation, cell-based, NIH3T3, luminescence, dose retest (AID 435004); assay type: functional;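 note: stress induced by proteasome inhibitor MG132 added 30 min after compound; luciferase reporter driven by HSF1 response element in NIH3T3 cells; actives raise luminescence as potentiators of the MG132 stress response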
T4 sequence (P38532 whole entry): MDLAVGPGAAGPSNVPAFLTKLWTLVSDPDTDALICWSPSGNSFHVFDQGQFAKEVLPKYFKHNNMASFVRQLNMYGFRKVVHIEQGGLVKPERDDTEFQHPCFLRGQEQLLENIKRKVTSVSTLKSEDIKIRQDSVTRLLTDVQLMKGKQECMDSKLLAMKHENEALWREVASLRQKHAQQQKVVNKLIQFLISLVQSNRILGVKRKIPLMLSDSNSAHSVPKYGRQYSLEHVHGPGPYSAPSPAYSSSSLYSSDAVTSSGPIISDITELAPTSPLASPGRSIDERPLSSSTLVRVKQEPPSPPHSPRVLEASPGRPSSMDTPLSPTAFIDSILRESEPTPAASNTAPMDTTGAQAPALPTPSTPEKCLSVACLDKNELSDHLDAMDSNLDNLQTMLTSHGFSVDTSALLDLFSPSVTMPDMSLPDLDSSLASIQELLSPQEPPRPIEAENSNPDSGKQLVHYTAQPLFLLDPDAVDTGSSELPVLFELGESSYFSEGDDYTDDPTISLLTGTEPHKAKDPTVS

[14] = molecular target: Neurotensin receptor type 1 (Homo sapiens, UniProt P30989); assay type: functional;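 note: Image-based confirmatory dose-response assay measuring agonist activity at NTR1; NTR1-expressing U2OS osteosarcoma cells imaged for beta-arrestin GFP spot formation; agonist potency where compounds increase beta-arrestin recruitment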
[15] = molecular target: Dual specificity protein phosphatase 3 (Homo sapiens, UniProt P51452); assay: VHR1 inhibitor Ki determination, SAR follow-up, biochemical, colorimetric (AID 2004)
[16] = HEp-2 cell cytotoxicity, dose response, cytotoxicity control for RSV inhibitor project, HTS (AID 2410); assay type: functional; conditions: human respiratory syncytial virus
[17] = test system: Streptococcus sp. 'group A'; assay: growth inhibition of control SK(-) GAS strain, dose response, counter-screen for streptokinase expression inhibitor project, luminescence, kanamycin, BacTiterGlo, confirmation (AID 1900); assay type: functional, organism-based; conditions: Streptococcus sp. 'group A'
Streptococcus = assay: Group A Streptococcus viability loss, dose response, counter-screen for streptokinase expression inhibitor project, luminescence, BacTiterGlo (AID 1915); assay type: functional, organism-based; conditions: Streptococcus;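 note: potency for reduction of bacterial viability or growth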
INS1 = assay: beta cell apoptosis inhibitors, cytokine rescue, dose response, luminescence, retest (AID 449756); assay type: functional, cell-based; conditions: Rattus norvegicus;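 note: cell death triggered by IL-1 beta plus TNF-alpha plus IFN-gamma mixture; protective hits raise ATP signal compared with cytokine alone wells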
[18] = molecular target: T5, Apoptotic protease-activating factor 1 (Homo sapiens, UniProt O14727); assay type: functional
T5 sequence (O14727 whole entry): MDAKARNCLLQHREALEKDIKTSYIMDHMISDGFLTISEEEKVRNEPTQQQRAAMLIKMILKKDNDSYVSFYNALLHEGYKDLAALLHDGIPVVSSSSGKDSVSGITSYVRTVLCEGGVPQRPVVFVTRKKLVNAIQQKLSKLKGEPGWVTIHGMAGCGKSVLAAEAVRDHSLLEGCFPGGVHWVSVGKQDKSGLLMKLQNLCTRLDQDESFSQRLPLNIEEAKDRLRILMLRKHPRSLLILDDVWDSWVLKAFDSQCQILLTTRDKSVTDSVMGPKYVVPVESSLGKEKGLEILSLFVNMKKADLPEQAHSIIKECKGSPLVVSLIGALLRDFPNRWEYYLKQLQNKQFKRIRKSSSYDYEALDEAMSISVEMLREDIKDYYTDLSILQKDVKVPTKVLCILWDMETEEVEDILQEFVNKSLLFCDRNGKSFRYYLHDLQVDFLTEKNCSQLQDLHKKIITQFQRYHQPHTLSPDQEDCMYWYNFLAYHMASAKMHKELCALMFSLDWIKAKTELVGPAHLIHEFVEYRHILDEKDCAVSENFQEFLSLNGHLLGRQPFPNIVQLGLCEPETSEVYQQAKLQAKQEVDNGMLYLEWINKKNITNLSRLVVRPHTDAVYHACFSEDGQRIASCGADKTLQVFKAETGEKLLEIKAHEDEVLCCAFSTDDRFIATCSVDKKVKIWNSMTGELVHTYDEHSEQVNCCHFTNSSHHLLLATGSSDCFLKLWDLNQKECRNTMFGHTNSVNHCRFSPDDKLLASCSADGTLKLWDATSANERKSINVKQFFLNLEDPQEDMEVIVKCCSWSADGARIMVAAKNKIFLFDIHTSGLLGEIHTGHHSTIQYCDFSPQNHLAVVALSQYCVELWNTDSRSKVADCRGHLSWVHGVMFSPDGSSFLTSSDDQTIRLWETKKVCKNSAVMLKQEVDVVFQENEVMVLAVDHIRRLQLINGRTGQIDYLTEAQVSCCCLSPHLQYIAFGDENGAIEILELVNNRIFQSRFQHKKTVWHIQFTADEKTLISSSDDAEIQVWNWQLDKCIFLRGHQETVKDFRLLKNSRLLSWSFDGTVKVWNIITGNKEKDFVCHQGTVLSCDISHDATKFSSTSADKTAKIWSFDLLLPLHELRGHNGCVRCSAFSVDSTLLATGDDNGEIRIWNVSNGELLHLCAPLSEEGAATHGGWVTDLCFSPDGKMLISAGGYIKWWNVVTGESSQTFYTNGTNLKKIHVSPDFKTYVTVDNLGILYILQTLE

[19] = molecular target: NACHT, LRR and PYD domains-containing protein 1 (Homo sapiens, UniProt Q9C000); assay: NALP1 inhibitors in yeast, dose response, luminescent (AID 488860); assay type: functional
Saccharomyces cerevisiae = assay: NALP1 inhibitor project selectivity study, Caspase-1/ASC signal blockade IC50 in S. cerevisiae (AID 488863); assay type: functional, organism-based
Estrogen receptor beta = Estrogen receptor beta (Homo sapiens, UniProt Q92731); assay: ERβ–SRC-3 coactivator interaction inhibitors, confirmation, orthogonal assay, biochemical, ELISA, streptavidin-HRP readout (AID 1060)
Ephrin type-A receptor 4 = Ephrin type-A receptor 4 (Mus musculus, UniProt Q03137); assay: inhibitors of EphA4 binding to KYL peptide, primary screen, biochemical, colorimetric, mouse EphA4 (AID 689); assay type: functional
[20] = molecular target: Induced myeloid leukemia cell differentiation protein Mcl-1 (Homo sapiens, UniProt Q07820); assay type: functional
[21] = molecular target: T3, Tyrosine-protein phosphatase non-receptor type 7; assay: redox-dependent HePTP inhibition, mechanism study, biochemical, fluorescence (AID 2068); assay type: functional
Genome polyprotein = Genome polyprotein (dengue virus type 2, UniProt P29990); assay: Dengue-2 NS5 methyltransferase inhibitors, primary screen, biochemical, confirmation dose response (AID 588689); assay type: functional
Genome polyprotein, sequence (P29990 2492-3391 limits assumed): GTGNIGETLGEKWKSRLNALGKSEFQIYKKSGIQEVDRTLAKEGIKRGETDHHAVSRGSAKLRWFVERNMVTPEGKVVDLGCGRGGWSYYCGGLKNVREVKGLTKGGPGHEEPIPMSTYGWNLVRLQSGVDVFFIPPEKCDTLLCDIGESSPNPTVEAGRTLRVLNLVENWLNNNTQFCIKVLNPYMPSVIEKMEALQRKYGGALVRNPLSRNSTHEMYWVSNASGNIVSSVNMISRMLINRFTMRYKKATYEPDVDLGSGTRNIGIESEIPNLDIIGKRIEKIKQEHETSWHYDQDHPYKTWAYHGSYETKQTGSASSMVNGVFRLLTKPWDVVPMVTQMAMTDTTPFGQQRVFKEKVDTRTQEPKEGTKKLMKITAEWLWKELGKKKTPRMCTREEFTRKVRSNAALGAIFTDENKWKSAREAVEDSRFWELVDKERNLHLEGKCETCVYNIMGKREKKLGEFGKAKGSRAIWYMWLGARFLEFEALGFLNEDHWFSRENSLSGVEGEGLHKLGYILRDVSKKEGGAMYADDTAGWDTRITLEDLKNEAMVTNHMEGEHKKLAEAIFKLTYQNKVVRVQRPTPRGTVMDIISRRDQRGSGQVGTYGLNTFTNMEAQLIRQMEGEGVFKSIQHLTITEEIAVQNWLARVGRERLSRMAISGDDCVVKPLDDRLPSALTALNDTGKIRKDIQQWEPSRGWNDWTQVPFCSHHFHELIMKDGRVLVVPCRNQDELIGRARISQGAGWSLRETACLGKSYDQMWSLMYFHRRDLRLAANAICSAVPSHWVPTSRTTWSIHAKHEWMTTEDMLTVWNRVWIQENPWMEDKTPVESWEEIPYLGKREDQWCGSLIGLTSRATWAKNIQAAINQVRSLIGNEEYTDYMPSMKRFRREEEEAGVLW

Glyceraldehyde-3-phosphate dehydrogenase, sequence (P04406 whole entry): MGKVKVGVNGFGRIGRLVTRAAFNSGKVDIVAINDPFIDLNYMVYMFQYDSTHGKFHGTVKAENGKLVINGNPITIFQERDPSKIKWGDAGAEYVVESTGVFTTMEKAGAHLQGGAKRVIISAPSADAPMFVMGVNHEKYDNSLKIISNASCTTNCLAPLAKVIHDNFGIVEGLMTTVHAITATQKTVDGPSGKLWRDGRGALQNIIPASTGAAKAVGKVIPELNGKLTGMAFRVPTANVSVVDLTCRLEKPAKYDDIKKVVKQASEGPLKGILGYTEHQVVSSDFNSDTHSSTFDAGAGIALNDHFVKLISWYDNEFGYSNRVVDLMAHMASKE
Nucleotide-binding oligomerization domain-containing protein 2, sequence (Q9HC29 whole entry, the tested form may be a part): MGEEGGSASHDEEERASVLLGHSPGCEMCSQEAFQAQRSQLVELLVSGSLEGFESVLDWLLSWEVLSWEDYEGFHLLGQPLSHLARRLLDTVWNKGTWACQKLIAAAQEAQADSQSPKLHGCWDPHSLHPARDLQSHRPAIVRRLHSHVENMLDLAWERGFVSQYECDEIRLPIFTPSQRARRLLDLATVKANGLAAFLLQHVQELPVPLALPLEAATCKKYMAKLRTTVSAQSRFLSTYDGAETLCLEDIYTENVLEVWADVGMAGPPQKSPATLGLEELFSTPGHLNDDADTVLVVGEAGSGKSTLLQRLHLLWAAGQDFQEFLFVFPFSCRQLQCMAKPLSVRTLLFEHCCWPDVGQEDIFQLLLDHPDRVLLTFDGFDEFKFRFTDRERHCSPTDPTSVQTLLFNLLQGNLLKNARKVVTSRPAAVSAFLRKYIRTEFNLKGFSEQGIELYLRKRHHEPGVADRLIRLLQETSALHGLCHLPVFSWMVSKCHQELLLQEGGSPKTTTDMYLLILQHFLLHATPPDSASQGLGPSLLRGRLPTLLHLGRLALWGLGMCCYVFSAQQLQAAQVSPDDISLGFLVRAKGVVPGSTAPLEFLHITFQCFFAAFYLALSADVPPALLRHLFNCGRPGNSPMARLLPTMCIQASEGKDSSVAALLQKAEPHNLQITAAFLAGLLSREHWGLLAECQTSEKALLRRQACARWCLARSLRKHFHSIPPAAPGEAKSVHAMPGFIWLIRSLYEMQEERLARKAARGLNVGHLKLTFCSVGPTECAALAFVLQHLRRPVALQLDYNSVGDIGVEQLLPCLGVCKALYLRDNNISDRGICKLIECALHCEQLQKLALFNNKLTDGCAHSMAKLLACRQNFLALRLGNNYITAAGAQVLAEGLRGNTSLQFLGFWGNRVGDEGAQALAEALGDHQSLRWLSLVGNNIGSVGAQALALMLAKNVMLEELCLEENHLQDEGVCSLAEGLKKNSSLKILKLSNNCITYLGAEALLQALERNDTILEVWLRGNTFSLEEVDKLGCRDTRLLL
Alkaline phosphatase, placental type, sequence (P05187 whole entry): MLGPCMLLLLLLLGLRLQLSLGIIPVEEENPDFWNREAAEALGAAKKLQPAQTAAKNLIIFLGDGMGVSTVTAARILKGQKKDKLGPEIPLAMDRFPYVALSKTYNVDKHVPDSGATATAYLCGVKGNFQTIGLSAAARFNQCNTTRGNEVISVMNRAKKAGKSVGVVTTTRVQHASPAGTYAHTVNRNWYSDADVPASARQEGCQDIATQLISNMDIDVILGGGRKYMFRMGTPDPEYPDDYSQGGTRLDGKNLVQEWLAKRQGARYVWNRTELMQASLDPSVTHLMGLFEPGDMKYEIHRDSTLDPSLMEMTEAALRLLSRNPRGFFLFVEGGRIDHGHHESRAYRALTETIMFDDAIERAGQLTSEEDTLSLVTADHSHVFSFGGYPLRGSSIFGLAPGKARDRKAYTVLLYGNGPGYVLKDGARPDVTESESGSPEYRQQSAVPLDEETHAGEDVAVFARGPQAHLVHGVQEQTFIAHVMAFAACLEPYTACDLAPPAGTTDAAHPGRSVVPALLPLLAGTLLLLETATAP
Neurotensin receptor type 1, sequence (P30989 whole entry): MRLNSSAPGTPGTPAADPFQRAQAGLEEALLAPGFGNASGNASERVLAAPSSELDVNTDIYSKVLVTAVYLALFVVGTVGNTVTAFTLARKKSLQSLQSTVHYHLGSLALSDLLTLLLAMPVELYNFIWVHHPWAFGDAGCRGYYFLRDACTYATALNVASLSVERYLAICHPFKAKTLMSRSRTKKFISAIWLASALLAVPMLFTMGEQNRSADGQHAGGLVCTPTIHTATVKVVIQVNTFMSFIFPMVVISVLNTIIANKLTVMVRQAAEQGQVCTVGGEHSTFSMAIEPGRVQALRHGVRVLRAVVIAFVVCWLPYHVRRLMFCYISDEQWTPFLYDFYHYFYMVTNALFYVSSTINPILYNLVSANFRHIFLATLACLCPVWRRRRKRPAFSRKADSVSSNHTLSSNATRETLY
Dual specificity protein phosphatase 3, sequence (P51452 whole entry): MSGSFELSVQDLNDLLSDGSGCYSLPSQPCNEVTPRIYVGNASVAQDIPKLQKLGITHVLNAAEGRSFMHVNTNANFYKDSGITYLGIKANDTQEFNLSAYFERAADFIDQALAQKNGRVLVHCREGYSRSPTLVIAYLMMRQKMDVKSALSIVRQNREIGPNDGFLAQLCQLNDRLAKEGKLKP
Cytochrome P450 3A4, sequence (P08684 whole entry): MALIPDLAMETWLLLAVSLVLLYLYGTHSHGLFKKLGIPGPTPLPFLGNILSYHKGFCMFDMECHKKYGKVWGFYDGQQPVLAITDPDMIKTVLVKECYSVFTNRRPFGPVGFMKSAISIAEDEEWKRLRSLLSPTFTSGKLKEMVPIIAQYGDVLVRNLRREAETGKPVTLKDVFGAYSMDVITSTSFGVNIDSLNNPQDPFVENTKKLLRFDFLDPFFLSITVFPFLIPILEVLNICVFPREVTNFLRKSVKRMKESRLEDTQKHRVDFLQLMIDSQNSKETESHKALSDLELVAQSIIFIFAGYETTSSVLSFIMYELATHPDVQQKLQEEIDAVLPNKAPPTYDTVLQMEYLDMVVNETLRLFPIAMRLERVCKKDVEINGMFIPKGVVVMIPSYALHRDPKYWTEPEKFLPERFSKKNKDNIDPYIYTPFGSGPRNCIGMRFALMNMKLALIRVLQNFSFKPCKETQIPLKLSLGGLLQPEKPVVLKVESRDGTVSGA
Induced myeloid leukemia cell differentiation protein Mcl-1, sequence (Q07820 whole entry): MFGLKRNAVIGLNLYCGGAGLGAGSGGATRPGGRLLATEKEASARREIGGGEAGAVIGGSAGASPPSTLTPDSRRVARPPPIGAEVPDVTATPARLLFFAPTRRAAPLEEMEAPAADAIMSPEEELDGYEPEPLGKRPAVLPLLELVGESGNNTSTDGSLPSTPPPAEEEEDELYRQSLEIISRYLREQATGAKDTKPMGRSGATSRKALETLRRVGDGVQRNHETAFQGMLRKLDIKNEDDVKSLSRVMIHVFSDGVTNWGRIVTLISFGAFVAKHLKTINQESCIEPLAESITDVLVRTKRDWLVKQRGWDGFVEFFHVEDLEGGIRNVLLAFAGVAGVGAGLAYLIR
Estrogen receptor beta, sequence (Q92731 whole entry): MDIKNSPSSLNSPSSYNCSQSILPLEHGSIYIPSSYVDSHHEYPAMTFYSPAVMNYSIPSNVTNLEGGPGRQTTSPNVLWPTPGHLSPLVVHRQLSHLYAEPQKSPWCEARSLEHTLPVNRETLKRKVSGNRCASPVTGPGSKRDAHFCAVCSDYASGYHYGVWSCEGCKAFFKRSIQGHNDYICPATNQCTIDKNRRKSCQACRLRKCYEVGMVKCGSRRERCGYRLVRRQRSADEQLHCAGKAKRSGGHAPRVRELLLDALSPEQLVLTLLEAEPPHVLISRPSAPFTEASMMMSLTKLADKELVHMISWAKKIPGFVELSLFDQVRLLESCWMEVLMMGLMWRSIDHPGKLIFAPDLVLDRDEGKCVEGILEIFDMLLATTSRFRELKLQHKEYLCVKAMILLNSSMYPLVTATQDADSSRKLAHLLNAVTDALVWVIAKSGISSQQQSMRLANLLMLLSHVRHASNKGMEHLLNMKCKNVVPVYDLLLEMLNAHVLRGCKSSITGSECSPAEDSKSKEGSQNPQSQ

## COc1ccccc1-c1nc(SCc2cccc(Br)c2)n[nH]1
[1]
  IC50: > 100 µM (inactive)
[2]
  IC50: > 100 µM (not active)
[3]
  IC50: > 100 µM (inactive)

## NC(=O)[C@H](Cc1ccccc1)n1c(=O)[nH]c(=O)n(-c2ccc(Cl)cc2)c1=O
[4]
  IC50: > 100 µM (inactive)
[2]
  IC50: > 100 µM (not active)
[5]
  IC50: > 100 µM (not active)
[6]
  IC50: > 100 µM (inactive)

## Nc1ncnc(Nc2ccccn2)c1[N+](=O)[O-]
HEK293 [7]
  IC50: > 20 µM (inactive)
HEK293 [8]
  IC50: > 20 µM (inactive)
[9]
  EC50: 18.8 µM (active)
HEK293 [10]
  EC50: 17.8 µM (active)
HEK293 [11]
  IC50: 7.86 µM (active)
HEK293 [12]
  IC50: 17.6 µM (inactive)

## CCOC(=O)COc1ccc(/C=C/[N+](=O)[O-])c(OCC(=O)OCC)c1
Cytochrome P450 3A4
  AC50: 11.2 µM (inconclusive)
[13]
  EC50: 6.52 µM (inconclusive)
[14]
  EC50: 3.89 µM (active)

## O=C1C=CC(=O)N1Nc1c(Cl)cc(Cl)cc1Cl
[15]
  Ki: 33.7 µM (inactive)

## COC(=O)C(=Cc1ccc(OCc2ccc([N+](=O)[O-])cc2)c(OC)c1)C(=O)OC
HEK293 [8]
  IC50: > 20 µM (inactive)
[16]
  CC50: 6.91 µM (active)
HEK293 [10]
  EC50: > 20 µM (inactive)
HEK293 [11]
  IC50: 4.31 µM (active)
[14]
  EC50: 5.98 µM (active)
HEK293 [12]
  IC50: 8.46 µM (active)

## Cc1[nH]n(-c2ccccc2)c(=O)c1/C=N/NC(=O)c1cccc(F)c1
[17]
  EC50: 4.31 µM (active)
HEK293 [7]
  IC50: > 20 µM (inactive)
HEK293 [8]
  IC50: > 20 µM (inactive)
Streptococcus
  EC50: 7.25 µM (active)
INS1
  AC50: 2.03 µM (active)
[9]
  EC50: > 20 µM (inactive)
HEK293 [10]
  EC50: 8.44 µM (active)
HEK293 [11]
  IC50: > 20 µM (inactive)
[18]
  IC50: 7.78 µM (active)
HEK293 [12]
  IC50: > 20 µM (inactive)

## COc1ccccc1N1C(=O)C2CCC(c3ccccc3)CC2C1=O (centres undefined)
[19]
  IC50: > 100 µM (inactive)
Saccharomyces cerevisiae
  IC50: > 100 µM (inactive)

## O=C(NCCc1ccccc1)c1ccc2nc(-c3ccco3)c(-c3ccco3)nc2c1
Estrogen receptor beta
  IC50: 2.59 µM (not active)
Ephrin type-A receptor 4
  IC50: 21.3 µM (active)
[20]
  IC50: 3.16 µM (active)
[21]
  IC50: 1.05 µM (active)
Genome polyprotein
  IC50: 59.1 µM (active)

## O=C1C2CC=CCC2C(=O)N1c1n[nH]c(-c2ccccc2)n1 (centres undefined)
[1]
  IC50: 0.308 µM (active)
[2]
  IC50: > 100 µM (not active)
[3]
  IC50: 4 µM (active)

## c1ccc2c(CNC34CC5CC(CC(C5)C3)C4)c[nH]c2c1
[15]
  Ki: 32.9 µM (inactive)
